Series [1] in a line: Intracellular ATP levels. The class given is cell-based, rat. The following applies: rat. The method, then:
(§1) One test compound (Compound A) was received as dry powder and evaluated for potential cytotoxicity in a battery of in vitro assays. The compound was tested using both rat cardiomyocytes (CM) from rat neonates and a rat hepatoma (H4IIE) cell line. […] The cell supernatant or the cells themselves were harvested for biochemical analysis. General cytotoxicity was evaluated by monitoring membrane integrity, mitochondrial function, cell proliferation, oxidative stress, and apoptosis. In addition, interaction with P-glycoprotein (PgP) on H4IIE cells and solubility of the test compound were also assessed. The means of each exposure group (n=3-7) were calculated for each assay performed.
(§2) Experimental Protocol: The test compound was provided and stored at 4° C. until needed. Dosing solutions were prepared in complete culture medium. The rat hepatoma (H4IIE) cell line was used as the test system.
Intracellular ATP Levels: Cellular Adenosine triphosphate (ATP) was determined with an assay based on a reaction between ATP+D-luciferin+oxygen catalyzed by luciferase to yield Oxyluciferin+AMP+PPi+CO2+light. The emitted light is proportional to the amount of ATP present. […] In addition, a unique cell lysis reagent inhibits endogenous ATPases and therefore stabilizes cellular ATP by preventing its degradation to ADP. ATP is present in all-living cells and declines rapidly upon cell death. In addition, this assay in combination with the MTT assay provides an indicator of mitochondrial activity and energy status of the cell.
Plates were analyzed immediately or stored at −20° C. until needed. On the day of analysis, the plates were thawed and calibration curve prepared with ATP in the same liquid matrix as samples. ATP was quantified by adding ATP substrate solution and then reading luminescence on a Packard Fusion Luminescence or equivalent plate reader.
Intracellular ATP Levels: ATP levels in treated cells could be determined by using the regression coefficients obtained from the linear regression analysis of the calibration curve. Thus, values could be expressed as pmoles ATP/million cells. Background corrected luminescence was used to determine percent change relative to controls by dividing treated values by control values and multiplying by 100.

Series [2] has as its target P-glycoprotein (PgP) (Homo sapiens, UniProt P08183). Briefly: P-glycoprotein (PgP) binding: MTT with and without cyclosporin A, SK-MEL28 cells. The following applies: SK-MEL28 24 HR; for % Control (Compound + CSA): with cyclosporin A; for % Control (Compound): without CSA. It counts as cell-based. Also noted: SK-MEL28, human hepatocytes, HUVEC, C32, and NHEM cells were used as the test systems; endogenous in cells; host or cells: SK-MEL28 cells.

Series [3] has as its system human hepatocytes. Briefly: Predicted Ctox from Tox-Panel. The class given is cell-based. The note with it: 24 HR. Here is the method:
Studies such as these indicate that a preferred concentration for setting Ctox is the highest concentration at which there is no observed effect on any of the indicators being measured in the cluster analysis, especially a 24-hour cluster analysis. […] It will be apparent that 24 hour assays are more time-effective, and consequently, the 24 hour NOEL/Ctox represents a preferred data point to select as Ctox in a CATS assay. It will also be apparent that, with further time studies, it may be possible to select an equally suitable Ctox at other CATS assay time points (e.g., between 24 and 72 hours, or less than 24 hours).
In certain embodiments, the predicting comprises performing concentration response analyses of measurements from at least three separate assays that are employed in the cluster analysis. […] From these concentration response analyses, the highest concentration of the chemical compound at which a measurable toxic effect of the chemical compound is not observable, i.e. NOEL, is determined and the Ctox is identified as the concentration that correlates to the NOEL. […]
The results are summarized in Tables 14-17 and in FIGS. 83-102. […] Assay response is continually monitored to assure reliable results. […]

Series [4] has as its system rat cardiomyocytes. The series can be described thus: Caspase 3 activity (apoptosis). The class given is cell-based. The method, then: as §1
(§3) Caspase 3 Procedure: Caspase 3 activity was determined using a caspase substrate (DEVD, Asp-Glu-Val-Asp) labeled with a fluorescent molecule, 7-Amino4-methylcoumarin (AMC). Caspase 3 cleaves the tetrapeptide between D and AMC, thus releasing the fluorogenic […] AMC. Following the test article exposure to cells in 96-well plates, medium was aspirated from plates and PBS added to each well. Plates were stored at −80° C. to lyse cells and store samples until further analysis. On the day of analysis, plates were removed from freezer and thawed. Caspase buffer with fluorescent substrate was added to each well and incubated at room temperature for 1 hr. AMC release was measured in a spectrofluorometer at an excitation wavelength of 360 nm and an emission wavelength of 460 nm. Values are expressed as relative fluorescent units (RFU).
(§4) Caspase Activity: After sample plates were completely thawed, the caspase substrate buffer mix was added to each plate. Plates were incubated at room temperature for 1hr, shielded from light. Plates were read using a in a spectrofluorometer at an excitation wavelength of 360 nm and an emission wavelength of 460 nm. Values were expressed as relative fluorescent units (RFU).
(§5) The key to the maximal response data can be found below Table 2.

For series [5], the system named is H4IIE cells. The series can be described thus: Caspase 3 activity (apoptosis). The class given is cell-based, rat. Here is the method: as §1, §2, §3, §4, §5
The mark [6] stands for this setting: H4IIE rat hepatoma cells, H4IIE, 24 HR exposure, read-out: ATP TC50.
Setting [7] is: H4IIE, 24 HR, exposure concentration that produced the response (μM series).

Where two headings read alike, the source gives them in different places.

Chain of P-glycoprotein (PgP) (P08183 whole entry): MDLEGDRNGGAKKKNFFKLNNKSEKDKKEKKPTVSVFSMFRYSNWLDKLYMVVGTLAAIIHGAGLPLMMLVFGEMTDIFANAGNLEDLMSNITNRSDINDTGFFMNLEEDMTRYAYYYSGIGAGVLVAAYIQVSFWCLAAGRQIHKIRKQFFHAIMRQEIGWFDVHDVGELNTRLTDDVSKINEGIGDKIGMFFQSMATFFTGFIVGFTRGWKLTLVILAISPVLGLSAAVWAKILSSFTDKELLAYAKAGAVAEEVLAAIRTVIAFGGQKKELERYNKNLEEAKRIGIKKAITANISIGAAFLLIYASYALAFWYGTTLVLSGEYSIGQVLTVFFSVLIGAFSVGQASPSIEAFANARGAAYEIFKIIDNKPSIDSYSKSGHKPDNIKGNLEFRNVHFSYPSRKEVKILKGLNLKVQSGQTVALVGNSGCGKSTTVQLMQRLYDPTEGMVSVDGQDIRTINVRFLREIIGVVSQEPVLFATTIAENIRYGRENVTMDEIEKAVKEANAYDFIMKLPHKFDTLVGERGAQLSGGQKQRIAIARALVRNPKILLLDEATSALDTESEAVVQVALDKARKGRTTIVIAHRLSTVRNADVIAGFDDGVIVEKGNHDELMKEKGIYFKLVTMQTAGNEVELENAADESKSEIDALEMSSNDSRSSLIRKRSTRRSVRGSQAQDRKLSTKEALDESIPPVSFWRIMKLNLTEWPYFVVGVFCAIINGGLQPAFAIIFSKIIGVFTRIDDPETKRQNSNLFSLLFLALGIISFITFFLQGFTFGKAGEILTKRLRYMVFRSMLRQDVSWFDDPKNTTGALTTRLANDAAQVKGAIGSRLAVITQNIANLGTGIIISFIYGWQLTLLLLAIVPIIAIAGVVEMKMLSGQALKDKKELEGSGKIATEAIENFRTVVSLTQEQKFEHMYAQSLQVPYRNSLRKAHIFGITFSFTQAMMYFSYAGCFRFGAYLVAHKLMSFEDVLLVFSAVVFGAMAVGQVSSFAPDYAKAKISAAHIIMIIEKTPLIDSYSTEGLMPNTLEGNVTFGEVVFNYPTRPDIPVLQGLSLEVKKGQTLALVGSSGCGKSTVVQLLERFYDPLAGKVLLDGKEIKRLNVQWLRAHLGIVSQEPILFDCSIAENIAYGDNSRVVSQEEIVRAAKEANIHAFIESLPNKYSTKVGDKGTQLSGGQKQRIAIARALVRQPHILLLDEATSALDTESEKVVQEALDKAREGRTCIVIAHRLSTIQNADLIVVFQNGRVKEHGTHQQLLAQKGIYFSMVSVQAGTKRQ

As to `Nc1nc(NC2CC2)c2ncn([C@H]3C=C[C@@H](CO)C3)c2n1` [ABACAVIR, abacavir], the CC50 at 24 h in series [1] (ATP TC50) came to 154 µM.
Turning to `CC[C@@]1(O)C(=O)OCc2c1cc1n(c2=O)Cc2cc3ccccc3nc2-1` [CAMPTOTHECIN, Camptothecin], in series [2], the “% Control (Compound + CSA)” value was 63.3%. Besides, the “% Control (Compound)” value in series [2] was found to be 56.5%. Besides, the CC50 at 24 h in series [1] (setting [6]) was found to be 1 µM. Also, the “Predicted Ctox” value in series [3] was 23 µM. For the same compound, the “Caspase 3 Activity (Index/Dose): Index” value in series [4] (CM, 24 HR) is listed as 6 (1000-1200 = 6); in series [5] (H4IIE, 24 HR), 5 (800-1000 = 5). The “Caspase 3 Activity (Index/Dose): Dose” value in series [4] (CM, 24 HR, exposure concentration that produced the response (μM series)) was determined as 300; in series [5] (setting [7]), 100.
On to `COc1cccc2c1C(=O)c1c(O)c3c(c(O)c1C2=O)C[C@@](O)(C(C)=O)C[C@@H]3O[C@H]1C[C@H](N)[C@H](O)[C@H](C)O1` [DAUNORUBICIN, daunorubicin], for which the CC50 at 24 h in series [1] was found to be 7 µM.
For `CC(C)Nc1cccnc1N1CCN(C(=O)c2cc3cc(NS(C)(=O)=O)ccc3[nH]2)CC1` [DELAVIRDINE, delavirdine], in series [1] (ATP TC50), the CC50 at 24 h was determined as 257 µM. Moreover, in series [4] (rat, 24 h), the “Caspase 3 Activity (Index/Dose): Dose” value was found to be 100.
On to `O=C1Nc2ccc(Cl)cc2[C@@](C#CC2CC2)(C(F)(F)F)O1` [EFAVIRENZ, efavirenz], for which the CC50 at 24 h in series [1] (ATP TC50) is 162 µM.
For the compound `COc1cccc2c1C(=O)c1c(O)c3c(c(O)c1C2=O)C[C@@](O)(C(=O)CO)C[C@@H]3O[C@H]1C[C@H](N)[C@@H](O)[C@H](C)O1` [EPIRUBICIN, epirubicin], the CC50 at 24 h in series [1] (ATP TC50) turned out to be 32 µM. Besides, the “Caspase 3 Activity (Index/Dose): Dose” value is on record as 20 in series [4] (rat, 24 h) and 50 in series [5] (rat, 24 h).
`CC(=O)[C@]1(O)Cc2c(O)c3c(c(O)c2[C@@H](O[C@H]2C[C@H](N)[C@H](O)[C@H](C)O2)C1)C(=O)c1ccccc1C3=O` [IDARUBICIN, idarubicin]: in series [1] (ATP TC50), the CC50 at 24 h was 2 µM.
For the compound `Cc1cccc(C)c1OCC(=O)N[C@@H](Cc1ccccc1)[C@@H](O)C[C@H](Cc1ccccc1)NC(=O)[C@H](C(C)C)N1CCCNC1=O` [LOPINAVIR, lopinavir], the CC50 at 24 h in series [1] (ATP TC50) was found to be 195 µM. In addition, the “Caspase 3 Activity (Index/Dose): Dose” value was found to be 100 in series [4] (rat, 24 h) and 300 in series [5] (rat, 24 h).
`O=C1c2c(O)ccc(O)c2C(=O)c2c(NCCNCCO)ccc(NCCNCCO)c21` [MITOXANTRONE, mitoxantrone]: in series [1] (ATP TC50), the CC50 at 24 h was determined as 5 µM.
On to `COc1cccc2c1C(=O)c1c(O)c3c(c(O)c1C2=O)C[C@@](O)(C(=O)CO)C[C@@H]3O[C@H]1C[C@H](N)[C@H](O[C@@H]2CCCCO2)[C@H](C)O1` [PIRARUBICIN, pirarubicin], for which the CC50 at 24 h in series [1] (setting [6]) came out at 8 µM. Besides, the “Caspase 3 Activity (Index/Dose): Index” value in series [5] (H4IIE, 24 HR) is on record as 8 (1400-1600 = 8). For the same compound, the “Caspase 3 Activity (Index/Dose): Dose” value in series [5] (setting [7]) was 10 (1800-2000 = 10).
With `C=C(C)[C@H]1Cc2c(ccc3c2O[C@@H]2COc4cc(OC)c(OC)cc4[C@@H]2C3=O)O1` [ROTENONE, Rotenone], in series [2], the “% Control (Compound + CSA)” value was determined as 117.3% and the “% Control (Compound)” value was determined as 98.2%. Besides, the CC50 at 24 h in series [1] (H4IIE, 24 HR exposure, read-out: ATP TC50) amounted to 0.04 µM. Besides, in series [3], the “Predicted Ctox” value was 0.6 µM.
